Laboratory results: BigSolDB 2.1

NC[C@H]1O[C@H](O[C@H]2[C@H](O)[C@@H](O[C@H]3O[C@H](CO)[C@@H](O)[C@H](N)[C@H]3O)[C@H](N)C[C@@H]2N)[C@H](N)C[C@@H]1O
solubility (mole fraction)
Details | 283.15 K | 288.15 K | 293.15 K | 294.15 K | 298.15 K | 303.15 K | 308.15 K | 313.15 K | 318.15 K
in DMF | – | – | 0.000144 | – | 0.000181 | 0.000249 | 0.000394 | 0.000663 | 0.000942
in DMSO | – | – | – | 0.0124 | 0.014 | 0.018 | 0.0236 | 0.0282 | 0.0351
in ethanol | 0.000436 | 0.000556 | 0.000708 | – | 0.00114 | 0.00191 | 0.00243 | – | –
in methanol | – | 0.000129 | 0.000133 | – | 0.000189 | 0.000284 | 0.000433 | 0.000635 | –
